Results published in the C3SDB collision cross section collection.
Values joined by “and” are separate entries in the source; they are usually repeats but may differ in a detail not shown here. Equal entries are not always repeated.

Settings: instrument: DT, single field, calibrated with Agilent tune mix (Agilent)

Row | collision cross section (N2) ([M-H]-) | collision cross section (N2) ([M+H]+) | Structure (SMILES) | also measured
1 | 255.72 Å² |  | CC(C)CC(=O)SCCNC(=O)CCNC(=O)[C@H](O)C(C)(C)COP(=O)(O)OP(=O)(O)OC[C@H]1O[C@@H](n2cnc3c(N)ncnc32)[C@H](O)[C@@H]1OP(=O)(O)O [3-Methylbutanoyl-CoA] | 
2 |  | 133.1 Å² | C[N+](C)(C)C[C@H](O)CC(=O)[O-] [L-Carnitine] | 
3 | 134.09 Å² |  | CSCC[C@H](NC=O)C(=O)O [N-Formylmethionine] | 
4 |  | 230.9 Å² | NC(=O)c1ccc[n+]([C@@H]2O[C@H](COP(=O)(O)OP(=O)(O)OC[C@H]3O[C@@H](n4cnc5c(N)ncnc54)[C@H](OP(=O)(O)O)[C@@H]3O)[C@@H](O)[C@H]2O)c1 [Nicotinamide adenine dinucleotide phosphate (NADP)] | 
5 | 204.37 Å² | 204.5 Å² | C[C@H](CCC(=O)NCCS(=O)(=O)O)[C@H]1CC[C@H]2[C@@H]3CC[C@@H]4C[C@H](O)CC[C@]4(C)[C@H]3C[C@H](O)[C@]12C [Taurodeoxycholic acid] | 
6 | 193.29 Å² |  | O=P(O)(O)OC1C(OP(=O)(O)O)C(OP(=O)(O)O)C(OP(=O)(O)O)C(OP(=O)(O)O)C1OP(=O)(O)O (stereo unspecified) [Myo-inositol hexakisphosphate] | 
7 | 127.48 Å² |  | CC(C)CCC(=O)O [Isocaproic acid] | 
8 | 134.24 Å² | 142.5 Å² | Cn1c(=O)c2[nH]c(=O)[nH]c2n(C)c1=O [1,3-Dimethyluric acid] | 
9 | 129.27 Å² |  | O=C(O)/C=C/c1ccc(O)cc1 [4-Hydroxycinnamic acid] | collision cross section (N2) ([M+H-H2O]+): 127 Å²
10 |  | 158.8 Å² | N[C@@H](Cc1ccc(O)c(I)c1)C(=O)O [3-Iodo-L-tyrosine] | collision cross section (N2) ([M+Na-2H]-): 148.03 Å²
11 |  | 174.1 Å² | CCCCC/C=C\C/C=C\C/C=C\CCCCC(=O)O [(6,9,12)-Linolenic acid] | 
12 | 173.34 Å² |  | C[C@]12CC[C@@H]3c4ccc(O)cc4CC[C@H]3[C@@H]1CC[C@@H]2O [Beta-Estradiol] | 
13 | 296.46 Å² | 296.2 Å² | CCCCCCCCCCCCCCCC(=O)SCCNC(=O)CCNC(=O)[C@H](O)C(C)(C)COP(=O)(O)OP(=O)(O)OC[C@H]1O[C@@H](n2cnc3c(N)ncnc32)[C@H](O)[C@@H]1OP(=O)(O)O [Palmitoyl CoA] | 
14 | 200.72 Å² |  | C[C@H](CCC(=O)O)[C@H]1CC[C@H]2[C@@H]3[C@H](O)C[C@@H]4C[C@H](O)CC[C@]4(C)[C@H]3C[C@H](O)[C@]12C [Cholic acid] | collision cross section (N2) ([M+Na]+): 197.3 Å²
15 | 146.87 Å² |  | CCCCCCCCCC(=O)O [Capric acid] | 
16 |  | 137 Å² | O=C(O)c1cc(=O)c2ccccc2[nH]1 [Kynurenic acid] | collision cross section (N2) ([M+Na-2H]-): 149.51 Å²
17 | 254.31 Å² | 252 Å² | CC(C)C(=O)SCCNC(=O)CCNC(=O)[C@H](O)C(C)(C)COP(=O)(O)OP(=O)(O)OC[C@H]1O[C@@H](n2cnc3c(N)ncnc32)[C@H](O)[C@@H]1OP(=O)(O)O [Isobutyryl-CoA] | 
18 |  | 140.9 Å² | O=C(O)Cc1c[nH]c2ccc(O)cc12 [5-Hydroxyindoleacetate] | 
19 | 122.07 Å² |  | Nc1cccc(C(=O)O)c1O [3-Aminosalicylic acid] | 

Row | collision cross section (N2) ([M-H]-) | collision cross section (N2) ([M+H]+) | Structure (SMILES) | also measured
20 |  | 131.2 Å² | CC1CNC(=O)NC1=O (stereo unspecified) [Dihydrothymine] | 
21 | 139.72 Å² |  | O=C(O)CNC(=O)c1ccccc1 [Hippuric acid] | 
22 | 184.12 Å² | 188.3 Å² | Cc1cc2nc3c(=O)[nH]c(=O)nc-3n(C[C@H](O)[C@H](O)[C@H](O)CO)c2cc1C [Riboflavin (Vitamin B2)] | 
23 |  |  | OC[C@H]1O[C@H](O)[C@H](O)[C@@H](O)[C@@H]1O [Alpha-D-Glucose] | collision cross section (N2) ([M+Na]+): 146.2 Å²
24 | 131.7 Å² | 135.1 Å² | NC[C@H](O)CC[C@H](N)C(=O)O [5-Hydroxy-L-lysine] | 
25 |  |  | CC(=O)N[C@@H](CC(=O)O)C(=O)N[C@@H](CCC(=O)O)C(=O)O [N-Acetylaspartylglutamate] | collision cross section (N2) ([M-H2O-H]-): 156.77 Å²
26 |  |  | O=C(O)/C=C/c1ccccc1O [trans-2-Hydroxycinnamic acid] | collision cross section (N2) ([M+H-H2O]+): 124.1 Å²
27 | 133.01 Å² |  | O=C(O)CNC(=O)c1ccccc1O [Salicyluric acid] | 
28 | 171.31 Å² |  | Nc1ccn([C@@H]2O[C@H](COP(=O)(O)OP(=O)(O)O)[C@@H](O)[C@H]2O)c(=O)n1 [Cytidine 5'-diphosphate] | 
29 | 129.61 Å² |  | OC[C@H](O)[C@@H](O)[C@H](O)[C@@H](O)CO [L-Iditol] | collision cross section (N2) ([M+Na]+): 143 Å²
30 |  | 182.3 Å² | CC(=O)[C@H]1CC[C@H]2[C@@H]3CCC4=CC(=O)CC[C@]4(C)[C@H]3[C@@H](O)C[C@]12C [11beta-Hydroxyprogesterone] | collision cross section (N2) ([M-H2O-H]-): 180.95 Å²
31 |  | 148.1 Å² | CC(C)(CO)[C@@H](O)C(=O)NCCC(=O)O [Pantothenate] | 
32 |  | 201.6 Å² | COc1cc(/C=C/C(=O)CC(=O)/C=C/c2ccc(O)c(OC)c2)ccc1O [Curcumin] | collision cross section (N2) ([M+Na-2H]-): 178.82 Å²
33 | 241.54 Å² | 240.4 Å² | CC(C)(COP(=O)(O)OP(=O)(O)OC[C@H]1O[C@@H](n2cnc3c(N)ncnc32)[C@H](O)[C@@H]1OP(=O)(O)O)[C@@H](O)C(=O)NCCC(=O)NCCS [Coenzyme A] | 
34 | 140.9 Å² |  | COc1cc(C(O)C(=O)O)ccc1O (racemic) [DL-Vanillylmandelic acid] | collision cross section (N2) ([M+H-H2O]+): 133.3 Å²
35 |  | 187.4 Å² | C[C@]12CCC(=O)C=C1CC[C@@H]1[C@@H]2CC[C@@]2(C)[C@H]1CC[C@]2(O)C(=O)CO [Cortexolone] | 
36 | 145.91 Å² |  | O=c1ccn([C@H]2C[C@H](O)[C@@H](CO)O2)c(=O)[nH]1 [2'-Deoxyuridine] | collision cross section (N2) ([M+Na]+): 156 Å²
37 |  | 162.5 Å² | CSC[C@H]1O[C@@H](n2cnc3c(N)ncnc32)[C@H](O)[C@@H]1O [S-Methyl-5'-thioadenosine] | 
38 |  | 171.4 Å² | Nc1ncnc2c1ncn2[C@@H]1O[C@H](COP(=O)(O)O)[C@@H](O)[C@H]1O [Adenosine monophosphate (AMP)] | 

Row | collision cross section (N2) ([M-H]-) | collision cross section (N2) ([M+H]+) | Structure (SMILES) | also measured
39 | 144.2 Å² |  | CC(=O)N[C@@H](Cc1ccccc1)C(=O)O [N-Acetyl-L-phenylalanine] | collision cross section (N2) ([M+Na]+): 149.8 Å²
40 | 159.21 Å² |  | CCCCCCCCCCCCCC(=O)O [Myristic acid] | 
41 | 199.95 Å² |  | C[C@H](CCC(=O)O)[C@H]1CC[C@H]2[C@@H]3CC[C@@H]4C[C@H](O)CC[C@]4(C)[C@H]3CC[C@]12C [Lithocholic acid] | collision cross section (N2) ([M+H-H2O]+): 193.4 Å²
42 |  |  | CC1=C(/C=C/C(C)=C/C=C/C(C)=C/CO)C(C)(C)CCC1=O [4-Oxoretinol] | collision cross section (N2) ([M+H-H2O]+): 173.3 Å²
43 | 158.98 Å² | 166.7 Å² | O=c1c(O)c(-c2ccc(O)c(O)c2)oc2cc(O)cc(O)c12 [Quercetin] | 
44 |  |  | CC(C)C[C@H](N)C(=O)N1CCC[C@H]1C(=O)O [L-leucyl-L-proline] | collision cross section (N2) ([M+H-H2O]+): 149.5 Å²
45 | 135 Å² |  | O=C(O)C(O)c1ccc(O)c(O)c1 (stereo unspecified) [3,4-Dihydroxymandelic acid] | collision cross section (N2) ([M+H-H2O]+): 132 Å²
46 | 129.21 Å² |  | CC(=O)N[C@@H](CC(=O)O)C(=O)O [N-Acetyl-L-aspartic acid] | collision cross section (N2) ([M+Na]+): 139 Å²
47 | 247.18 Å² |  | C=CC1=C(C)/C(=C/c2[nH]c(Cc3[nH]c(/C=C4\NC(=O)C(C)=C4C=C)c(C)c3CCC(=O)O)c(CCC(=O)O)c2C)NC1=O [Bilirubin] | 
48 | 204.49 Å² | 214 Å² | CCCCCCCCCCCCCCCC(=O)O[C@H](CC(=O)[O-])C[N+](C)(C)C [L-Palmitoylcarnitine] | 
49 | 185.74 Å² | 196.4 Å² | Nc1ncnc2c1ncn2[C@@H]1O[C@H](COP(=O)(O)OP(=O)(O)OP(=O)(O)O)[C@@H](O)[C@H]1O [Adenosine 5'-triphosphate] | 
50 | 117.08 Å² | 121 Å² | c1ccc2[nH]ccc2c1 [Indole] | 
51 |  | 202.4 Å² and 203.2 Å² | C=C1CC[C@H](O)C/C1=C/C=C1\CCC[C@]2(C)[C@@H]([C@H](C)/C=C/[C@H](C)C(C)C)CC[C@@H]12 [Ergocalciferol] | 
52 |  |  | O=P(O)(O)OC[C@H]1O[C@@](O)(COP(=O)(O)O)[C@@H](O)[C@@H]1O [Fructose 1,6-bisphosphate] | collision cross section (N2) ([M+Na]+): 168.2 Å²
53 | 138.2 Å² | 139 Å² | NC(=NCCCC(N)C(=O)O)NO (stereo unspecified) [N-(omega)-Hydroxyarginine] | 
54 |  |  | O=C(O)CCCCC(=O)O [Adipic acid] | collision cross section (N2) ([M+Na-2H]-): 129.61 Å²
55 | 176.13 Å² | 185.6 Å² | O=c1nc[nH]c2c1ncn2[C@@H]1O[C@H](COP(=O)(O)OP(=O)(O)O)[C@@H](O)[C@H]1O [Inosine diphosphate] | 
56 |  | 175.1 Å² | Nc1ccn([C@@H]2O[C@H](COP(=O)(O)OP(=O)(O)O)[C@@H](O)[C@H]2O)c(=O)n1 [CDP] | 
57 | 136.82 Å² |  | CC(=O)N[C@@H](CCC(N)=O)C(=O)O [N-Acetylglutamine] | collision cross section (N2) ([M+Na]+): 144.4 Å²

Row | Structure (SMILES) | collision cross section (N2) ([M-H]-) | collision cross section (N2) ([M+H]+) | also measured
58 | COc1ccc2[nH]cc(CCN(C)C)c2c1 [5-Methoxydimethyltryptamine] | 153.76 Å² | 151.5 Å² | 
